Like-named read-outs stand apart in the source and are kept apart here.
Key:
[1] = test system: PC-9 cells (EGFR Ex19Del); experiment: Potency Assay: pERK (SOS1 pERK IC50 Assay, AlphaLISA SureFire Ultra p-ERK1/2); assay type: cell-based; conditions: Homo sapiens, read-out: SOS1 pERK IC50
Description: The purpose of this assay is to measure the ability of test compounds to inhibit SOS1 function in cells. SOS1 activates RAS proteins by catalyzing the conversion of RAS GDP to RAS GTP in response to receptor tyrosine kinase activation. […] The procedure described below measures the level of cellular pERK in response to test compounds in PC-9 cells (EGFR Ex19Del).
PC-9 cells were grown and maintained using media and procedures recommended by the ATCC. On the day prior to compound addition, cells were plated in 384-well cell culture plates (40 μL/well) and grown overnight in a 37° C., 5% CO2 incubator. Test compounds were prepared in 10, 3-fold dilutions in DMSO, with a top concentration of 10 mM. On the day of the assay, 40 nL of test compound was added to each well of cell culture plate using an Echo550 liquid handler (LabCyte). Concentrations of test compound were tested in duplicate with highest test concentration being 10 μM. After compound addition, cells were incubated for 1 hour at 37° C., 5% CO2. Following incubation, culture medium was removed and cells were washed once with phosphate buffered saline.
Cellular pERK level was determined using the AlphaLISA SureFire Ultra p-ERK1/2 Assay Kit (PerkinElmer). Cells were lysed in 25 μL lysis buffer, with shaking at 600 RPM at room temperature for 15 minutes. Lysate (10 μL) was transferred to a 384-well Opti-plate (PerkinElmer) and 5 μL acceptor mix was added. The plate was centrifuged at 1000 RPM for 1 minute, and incubated in the dark for 2 hours. Following this incubation, 5 μL of donor mix was added, the plate was sealed and centrifuged at 1000 RPM for 1 minute, and the mixture was incubated for 2 hours at room temperature. Signal was read on an Envision plate reader (PerkinElmer) using standard AlphaLISA settings. Analysis of raw data was carried out in Excel (Microsoft) and Prism (GraphPad). Signal was plotted vs. the decadal logarithm of compound concentration, and IC50 was determined by fitting a 4-parameter sigmoidal concentration response model.

[2] = target: T1, SOS1 catalytic domain (residues 564-1049) (Homo sapiens, UniProt Q07889); experiment: Mode of Action Assay: inhibition of SOS1 nucleotide exchange activity (SOS1 TR-FRET IC50 Assay)
T1 sequence (Q07889 564-1049): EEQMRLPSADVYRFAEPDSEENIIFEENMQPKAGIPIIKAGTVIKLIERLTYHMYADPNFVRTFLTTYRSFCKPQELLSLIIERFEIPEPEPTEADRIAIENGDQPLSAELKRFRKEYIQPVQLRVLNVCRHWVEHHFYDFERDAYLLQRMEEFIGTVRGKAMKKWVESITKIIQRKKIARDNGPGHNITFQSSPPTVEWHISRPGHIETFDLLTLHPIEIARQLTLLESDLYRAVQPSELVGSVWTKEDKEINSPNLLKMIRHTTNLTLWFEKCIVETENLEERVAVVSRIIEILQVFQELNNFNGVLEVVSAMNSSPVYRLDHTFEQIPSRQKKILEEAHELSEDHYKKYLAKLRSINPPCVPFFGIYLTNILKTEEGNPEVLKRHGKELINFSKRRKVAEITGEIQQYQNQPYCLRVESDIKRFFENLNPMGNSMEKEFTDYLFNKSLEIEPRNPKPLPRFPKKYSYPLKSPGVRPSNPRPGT

[3] = PC-9 cells (EGFR Ex19Del), 1 hour incubation, AlphaLISA p-ERK1/2

IC50 [1, 3] [nM]	IC50 [2] [nM]	Structure (SMILES)	IC50 ([1]; PC-9, 1 h) [nM]
> 1000	< 1000	C[C@@H](Nc1nc(O)nc2c1CN(C(=O)N1CCOCC1)C2)c1cc(N)cc(C(F)(F)F)c1 [Example 55]	
> 1000	> 1000	Cc1nc2c(c(N[C@H](C)c3cc(N)cc(C(F)(F)F)c3)n1)CN(CC1CCOC1)C2 (stereo partly drawn) [Example 111, N-[(1R)-1-[3-amino-5-(trifluoromethyl)phenyl]ethyl]-2-methyl-6-(tetrahydrofuran-3-ylmethyl)-5,7-dihydropyrrolo[3,4-d]pyrimidin-4-amine]	
< 1000	< 1000	C[C@@H](Nc1nc(Cl)nc2c1CN(C(=O)N1CCOC(c3cccnc3)C1)C2)c1cc(N)cc(C(F)(F)F)c1 (some centres unmarked) [Example 151]	
< 1000	< 1000	C[C@@H](Nc1ncnc2c1CN(C1CCOCC1)C(=O)N2C)c1cc(N)cc(C(F)(F)F)c1 [Example 176, (R)-5-((1-(3-amino-5-(trifluoromethyl)phenyl)ethyl)amino)-1-methyl-3-(tetrahydro-2H-pyran-4-yl)-3,4-dihydropyrimido[4,5-d]pyrimidin-2(1H)-one]	
> 1000	> 1000	CO[C@H]1C[C@H](C(=O)N2CCc3nc(Cl)nc(N[C@H](C)c4cc(N)cc(C(F)(F)F)c4)c3C2)C1 [Example 190]	
> 1000	> 1000	COC12CCC(C(=O)N3CCc4nc(Cl)nc(N[C@H](C)c5cc(N)cc(C(F)(F)F)c5)c4C3)(CC1)C2 [Example 196]	
> 1000	> 1000	C[C@@H](Nc1nc(Cl)nc2c1CN(C(=O)C1CCCN1c1ncccn1)CC2)c1cc(N)cc(C(F)(F)F)c1 (some centres unmarked) [Example 200]	
> 1000	> 1000	C[C@@H](Nc1nc(Cl)nc2c1CN(C(=O)C1(C#N)CCC1)CC2)c1cc(N)cc(C(F)(F)F)c1 [Example 202]	
> 1000	> 1000	COC1(C(=O)N2CCc3nc(Cl)nc(N[C@H](C)c4cc(N)cc(C(F)(F)F)c4)c3C2)CCC1 [Example 203]	
> 1000	> 1000	C[C@@H](Nc1nc(Cl)nc2c1CN(C(=O)C1(CO)CC1)CC2)c1cc(N)cc(C(F)(F)F)c1 [Example 206]	
> 1000	> 1000	C[C@@H](Nc1nc(Cl)nc2c1CN(C(=O)C13CC(C)(C1)OC31COC1)CC2)c1cc(N)cc(C(F)(F)F)c1 [Example 210]	
> 1000	> 1000	C[C@@H](Nc1nc(Cl)nc2c1CN(C(=O)C13OCCCC1C3(F)F)CC2)c1cc(N)cc(C(F)(F)F)c1 (some centres unmarked) [Example 214]	
> 1000	> 1000	C[C@@H](Nc1nc(Cl)nc2c1CN(C(=O)[C@]13COC[C@H]1CS(=O)(=O)C3)CC2)c1cc(N)cc(C(F)(F)F)c1 [Example 215]	
> 1000	> 1000	C[C@@H](Nc1nc(Cl)nc2c1CN(C(=O)[C@@]13CCC[C@@H]1OCC3)CC2)c1cc(N)cc(C(F)(F)F)c1 [Example 216]	

More lines, now with the values behind:

Structure (SMILES)	IC50 [1, 3] [nM]	IC50 [2] [nM]	IC50 ([1]; PC-9, 1 h) [nM]
Cc1nc2c(c(N[C@H](C)c3cc(N)cc(C(F)(F)F)c3)n1)CN(S(=O)(=O)N1CCN(C)CC1)C2 [Example 38, (R)—N-(1-(3-amino-5-(trifluoromethyl)phenyl)ethyl)-2-methyl-6-((4-methylpiperazin-1-yl)sulfonyl)-6,7-dihydro-5H-pyrrolo[3,4-d]pyrimidin-4-amine]	< 1000	< 1000	
C[C@@H](Nc1ncnc2c1CN(CC1CCOC1)C2)c1cc(N)cc(C(F)(F)F)c1 (stereo partly drawn) [Example 54, N-[(1R)-1-[3-amino-5-(trifluoromethyl)phenyl]ethyl]-6-(tetrahydrofuran-3-ylmethyl)-5,7-dihydropyrrolo[3,4-d]pyrimidin-4-amine]	> 1000	> 1000	
Cc1nc2c(c(N[C@H](C)c3cc(N)cc(C(F)(F)F)c3)n1)CN(CC1CCOC1)CC2 (stereo partly drawn) [Example 56, N-[(1R)-1-[3-amino-5-(trifluoromethyl)phenyl]ethyl]-2-methyl-6-(tetrahydrofuran-3-ylmethyl)-7,8-dihydro-5H-pyrido[4,3-d]pyrimidin-4-amine]	> 1000	< 1000	
C[C@@H](Nc1nc(Cl)nc2c1CN([C@H]1CC[C@H](C(=O)N(C)C)CC1)C2)c1cc(N)cc(C(F)(F)F)c1 [Example 57, 4-[4-[[(1R)-1-[3-amino-5-(trifluoromethyl)phenyl]ethyl]amino]-2-chloro-5,7-dihydropyrrolo[3,4-d]pyrimidin-6-yl]-N,N-dimethyl-cyclohexanecarboxamide]	> 1000	> 1000	
C[C@@H](Nc1nc(Cl)nc2c1CN(C(=O)C1CCN(C)CC1)C2)c1cc(N)cc(C(F)(F)F)c1 [Example 58, [4-[[(1R)-1-[3-amino-5-(trifluoromethyl)phenyl]ethyl]amino]-2-chloro-5,7-dihydropyrrolo[3,4-d]pyrimidin-6-yl]-(1-methyl-4-piperidyl)methanone]		< 1000	< 1000
Cc1nc2c(c(N[C@H](C)c3cc(N)cc(C(F)(F)F)c3)n1)CN(C(=O)C1CCN(C)CC1)C2 [Example 109, [4-[[(1R)-1-[3-amino-5-(trifluoromethyl)phenyl]ethyl]amino]-2-methyl-5,7-dihydropyrrolo[3,4-d]pyrimidin-6-yl]-(1-methyl-4-piperidyl)methanone]		< 1000	> 1000
Cc1nc2c(c(N[C@H](C)c3cc(N)cc(C(F)(F)F)c3)n1)CCN(C(=O)N1CCOCC1)CC2 [Example 112, N-[(1R)-1-[3-amino-5-(trifluoromethyl)phenyl]ethyl]-2-methyl-7-(morpholine-4-carbonyl)-5H,6H,7H,8H,9H-pyrimido[4,5-d]-azepin-4-amine]	> 1000	> 1000	
C[C@@H](Nc1nc(Cl)nc2c1CN(C1CNC1)CC2)c1cccc(C(F)(F)F)c1 [Example 177, (R)-6-(azetidin-3-yl)-2-chloro-N-(1-(3-(trifluoromethyl)phenyl)ethyl)-5,6,7,8-tetrahydropyrido[4,3-d]pyrimidin-4-amine]	> 1000	< 1000	
C[C@@H](Nc1nc(Cl)nc2c1CN(C(=O)C1(O)CCOCC1)CC2)c1cc(N)cc(C(F)(F)F)c1 [Example 189]	> 1000	> 1000	
CC(C)OC1(C(=O)N2CCc3nc(Cl)nc(N[C@H](C)c4cc(N)cc(C(F)(F)F)c4)c3C2)CCOC1 (some centres unmarked) [Example 195]	> 1000	> 1000	
C[C@@H](Nc1nc(Cl)nc2c1CN(C(=O)C1CC13CCOCC3)CC2)c1cc(N)cc(C(F)(F)F)c1 (some centres unmarked) [Example 197]	> 1000	> 1000	
COC1CCC(C(=O)N2CCc3nc(Cl)nc(N[C@H](C)c4cc(N)cc(C(F)(F)F)c4)c3C2)C1 (some centres unmarked) [Example 199]	> 1000	> 1000	
COC1(C(=O)N2CCc3nc(Cl)nc(N[C@H](C)c4cc(N)cc(C(F)(F)F)c4)c3C2)CC1 [Example 201]	> 1000	> 1000	
COCC1(C(=O)N2CCc3nc(Cl)nc(N[C@H](C)c4cc(N)cc(C(F)(F)F)c4)c3C2)CCC1 [Example 204]	> 1000	< 1000	
C[C@@H](Nc1nc(Cl)nc2c1CN(C(=O)C1CCC1)CC2)c1cc(N)cc(C(F)(F)F)c1 [Example 209]	> 1000	> 1000	
C[C@@H](Nc1nc(Cl)nc2c1CN(C(=O)C13CC(C1)C3)CC2)c1cc(N)cc(C(F)(F)F)c1 [Example 211]	> 1000	> 1000	
COCC1(C(=O)N2CCc3nc(Cl)nc(N[C@H](C)c4cc(N)cc(C(F)(F)F)c4)c3C2)CC1 [Example 213]	> 1000	> 1000	
